Test in all cases: Kinome scan profile
Holding throughout (assay type): binding
What all share (conditions): 10 μM

One test concerns the target T1, IKK-epsilon (Homo sapiens, UniProt Q14164).
T1 construct: purchased DiscoverX (KINOMEscan)
T1 sequence (Q14164 1-716): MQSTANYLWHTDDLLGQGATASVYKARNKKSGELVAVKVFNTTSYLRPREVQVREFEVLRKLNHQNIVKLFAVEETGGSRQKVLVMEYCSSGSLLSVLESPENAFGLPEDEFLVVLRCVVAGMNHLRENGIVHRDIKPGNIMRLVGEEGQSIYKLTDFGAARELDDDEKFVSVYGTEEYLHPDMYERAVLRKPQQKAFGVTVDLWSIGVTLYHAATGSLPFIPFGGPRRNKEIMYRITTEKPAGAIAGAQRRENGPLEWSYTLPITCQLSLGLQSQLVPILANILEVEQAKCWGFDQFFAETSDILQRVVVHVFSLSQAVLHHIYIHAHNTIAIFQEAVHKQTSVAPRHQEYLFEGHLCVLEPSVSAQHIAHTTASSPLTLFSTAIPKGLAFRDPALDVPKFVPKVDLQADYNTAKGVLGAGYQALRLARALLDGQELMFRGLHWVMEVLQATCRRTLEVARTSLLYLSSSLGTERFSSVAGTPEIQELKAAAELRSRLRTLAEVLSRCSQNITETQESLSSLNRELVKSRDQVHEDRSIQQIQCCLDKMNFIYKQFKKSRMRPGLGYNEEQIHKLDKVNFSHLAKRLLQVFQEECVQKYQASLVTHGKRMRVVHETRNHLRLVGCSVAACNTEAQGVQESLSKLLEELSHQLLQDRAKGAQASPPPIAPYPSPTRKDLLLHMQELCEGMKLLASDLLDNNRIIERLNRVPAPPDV

In test [1] the target is T2, TYK2(JH1domain-catalytic) (Homo sapiens, UniProt P29597).
T2 construct: TYK2(JH1domain-catalytic); purchased DiscoverX (KINOMEscan)
T2 sequence (P29597 897-1176 limits assumed): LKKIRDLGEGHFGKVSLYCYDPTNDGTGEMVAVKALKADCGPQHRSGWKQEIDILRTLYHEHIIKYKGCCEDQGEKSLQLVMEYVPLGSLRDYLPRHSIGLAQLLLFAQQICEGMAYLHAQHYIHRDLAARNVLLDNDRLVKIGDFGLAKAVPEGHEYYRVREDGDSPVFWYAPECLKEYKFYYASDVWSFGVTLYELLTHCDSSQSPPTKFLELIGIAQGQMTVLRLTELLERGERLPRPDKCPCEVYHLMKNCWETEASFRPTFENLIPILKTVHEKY

A further test has as its target T3, TRKA (Homo sapiens, UniProt P04629).
T3 construct: purchased DiscoverX (KINOMEscan)

In another test the target is T4, PIK3CD (Homo sapiens, UniProt O00329).
T4 construct: purchased DiscoverX (KINOMEscan)
T4 sequence (O00329 1-1044): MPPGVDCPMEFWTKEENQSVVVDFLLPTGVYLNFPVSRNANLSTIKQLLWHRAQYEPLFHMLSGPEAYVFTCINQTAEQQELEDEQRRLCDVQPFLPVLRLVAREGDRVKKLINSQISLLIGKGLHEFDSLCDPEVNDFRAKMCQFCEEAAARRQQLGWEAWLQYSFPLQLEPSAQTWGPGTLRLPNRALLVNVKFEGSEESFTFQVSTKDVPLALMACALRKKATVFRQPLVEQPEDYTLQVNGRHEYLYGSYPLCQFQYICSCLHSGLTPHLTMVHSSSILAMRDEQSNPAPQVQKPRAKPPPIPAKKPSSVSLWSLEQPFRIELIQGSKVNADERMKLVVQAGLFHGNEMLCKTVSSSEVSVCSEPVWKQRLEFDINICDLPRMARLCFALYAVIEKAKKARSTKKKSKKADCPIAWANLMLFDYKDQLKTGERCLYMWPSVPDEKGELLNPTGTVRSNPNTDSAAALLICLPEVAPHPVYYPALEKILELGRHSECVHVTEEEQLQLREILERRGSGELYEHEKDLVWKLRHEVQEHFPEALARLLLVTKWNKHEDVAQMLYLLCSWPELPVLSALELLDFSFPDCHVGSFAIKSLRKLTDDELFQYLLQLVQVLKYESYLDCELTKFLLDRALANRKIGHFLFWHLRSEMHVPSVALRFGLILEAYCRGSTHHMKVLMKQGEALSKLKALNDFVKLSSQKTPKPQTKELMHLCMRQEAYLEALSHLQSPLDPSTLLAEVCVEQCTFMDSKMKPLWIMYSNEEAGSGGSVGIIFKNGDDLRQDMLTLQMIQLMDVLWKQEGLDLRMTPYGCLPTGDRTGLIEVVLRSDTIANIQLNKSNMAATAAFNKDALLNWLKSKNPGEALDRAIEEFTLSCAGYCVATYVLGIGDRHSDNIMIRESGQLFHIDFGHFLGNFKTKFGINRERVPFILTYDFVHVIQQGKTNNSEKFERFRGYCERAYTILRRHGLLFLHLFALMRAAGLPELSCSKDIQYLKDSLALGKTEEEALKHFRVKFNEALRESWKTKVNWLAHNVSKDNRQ

For the next test, the target named is T5, SNRK (Homo sapiens, UniProt Q9NRH2).
T5 construct: purchased DiscoverX (KINOMEscan)
T5 sequence (Q9NRH2 1-765): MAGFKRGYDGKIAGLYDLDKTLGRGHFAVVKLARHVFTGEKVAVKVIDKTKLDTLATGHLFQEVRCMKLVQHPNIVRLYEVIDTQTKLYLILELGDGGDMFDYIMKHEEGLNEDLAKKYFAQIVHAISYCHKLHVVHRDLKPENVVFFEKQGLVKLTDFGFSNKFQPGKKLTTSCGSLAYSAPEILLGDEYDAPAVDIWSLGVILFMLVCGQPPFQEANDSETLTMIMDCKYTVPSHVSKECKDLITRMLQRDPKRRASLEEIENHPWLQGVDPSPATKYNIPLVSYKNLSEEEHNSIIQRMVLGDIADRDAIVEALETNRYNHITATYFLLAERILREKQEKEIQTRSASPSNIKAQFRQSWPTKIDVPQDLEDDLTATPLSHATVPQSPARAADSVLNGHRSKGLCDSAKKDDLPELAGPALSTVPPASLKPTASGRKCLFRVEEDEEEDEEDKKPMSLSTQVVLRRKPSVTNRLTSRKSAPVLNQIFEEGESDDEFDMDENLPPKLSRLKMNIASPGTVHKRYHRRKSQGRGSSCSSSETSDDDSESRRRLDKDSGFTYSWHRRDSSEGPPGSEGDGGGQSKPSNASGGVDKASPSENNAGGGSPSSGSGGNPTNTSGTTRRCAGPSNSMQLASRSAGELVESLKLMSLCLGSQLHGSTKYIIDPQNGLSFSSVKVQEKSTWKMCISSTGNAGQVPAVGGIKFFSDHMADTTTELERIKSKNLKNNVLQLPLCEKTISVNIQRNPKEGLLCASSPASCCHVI

The target in test [2] is T6, JAK2(JH1domain-catalytic) (Homo sapiens, UniProt O60674).
T6 construct: JAK2(JH1domain-catalytic); purchased DiscoverX (KINOMEscan)
T6 sequence (O60674 849-1124 limits assumed): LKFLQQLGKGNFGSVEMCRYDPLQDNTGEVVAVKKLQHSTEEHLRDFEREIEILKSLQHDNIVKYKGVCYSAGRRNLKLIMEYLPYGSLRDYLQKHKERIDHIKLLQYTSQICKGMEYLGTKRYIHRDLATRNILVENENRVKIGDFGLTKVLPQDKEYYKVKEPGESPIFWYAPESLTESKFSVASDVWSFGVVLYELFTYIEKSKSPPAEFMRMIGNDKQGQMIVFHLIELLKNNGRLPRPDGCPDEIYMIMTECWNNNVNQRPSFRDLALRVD

T3 sequence (P04629 33-796): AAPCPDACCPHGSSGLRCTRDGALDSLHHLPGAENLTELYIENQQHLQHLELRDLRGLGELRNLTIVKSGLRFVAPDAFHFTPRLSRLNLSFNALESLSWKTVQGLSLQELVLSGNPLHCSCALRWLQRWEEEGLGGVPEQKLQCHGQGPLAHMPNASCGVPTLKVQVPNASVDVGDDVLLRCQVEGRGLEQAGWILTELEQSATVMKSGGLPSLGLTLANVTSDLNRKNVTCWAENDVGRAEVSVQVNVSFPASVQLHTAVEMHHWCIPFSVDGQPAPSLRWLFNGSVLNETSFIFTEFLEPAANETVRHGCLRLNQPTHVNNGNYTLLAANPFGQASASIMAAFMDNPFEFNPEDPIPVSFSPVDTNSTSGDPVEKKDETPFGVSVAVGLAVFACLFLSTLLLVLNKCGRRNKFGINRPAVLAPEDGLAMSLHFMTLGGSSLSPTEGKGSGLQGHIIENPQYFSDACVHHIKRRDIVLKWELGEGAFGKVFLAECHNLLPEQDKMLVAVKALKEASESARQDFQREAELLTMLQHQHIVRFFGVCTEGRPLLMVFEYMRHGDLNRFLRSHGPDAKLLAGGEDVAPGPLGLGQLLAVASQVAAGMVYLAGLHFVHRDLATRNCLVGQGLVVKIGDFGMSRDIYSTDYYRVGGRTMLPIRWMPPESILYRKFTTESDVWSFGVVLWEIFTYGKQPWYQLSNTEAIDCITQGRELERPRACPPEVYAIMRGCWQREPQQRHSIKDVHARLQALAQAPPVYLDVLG

For `CCN1CCN(Cc2c(O)ccc3c(=O)c(Oc4ccccc4C(C)C)c(C(F)(F)F)oc23)CC1` [NCGC00100599], the “% Control, IKK-epsilon” value at IKK-epsilon is recorded as 31 % Control. Further, the “% Control, TYK2(JH1domain-catalytic)” value in test [1] is listed as 19 % Control. The “% Control, TRKA” value on TRKA was 22 % Control. For the same molecule, the “% Control, PIK3CD” value on PIK3CD amounted to 10 % Control. For the same molecule, the “% Control, SNRK” value at SNRK is listed as 27 % Control. Moreover, in test [2], the “% Control, JAK2(JH1domain-catalytic)” value was determined as 31 % Control.

Values taken from PMC5390467, “Novel lead structures with both Plasmodium falciparum gametocytocidal and asexual blood stage activity identified from high throughput compound screening” (Malaria Journal, 2017).
